# The source made the active and inactive calls. The rule behind the calls is not given here.
# How the values were obtained:
# Hepatitis B virus [1] = assay: Antiviral activity against HBV infected in human HepAD38 cells assessed as inhibition of viral DNA at 10 uM incubated for 4 days by SYBR green dye based RT-PCR analysis relative to control; type: functional; details: HePAD38, 96 h, time 4 day
# Hepatitis B virus [2] = assay: Antiviral activity against HBV infected in human HepAD38 cells assessed as inhibition of viral DNA incubated for 4 days by SYBR green dye based RT-PCR analysis; type: functional, organism-based; details: HePAD38, 96 h
# [3] = Cytotoxicity against human HePAD38 cells assessed as cell viability incubated for 72 hrs by MTT assay; type: cell-based
# [4] = Cytotoxicity against human HepG2 cells assessed as cell viability incubated for 72 hrs by MTT assay; type: cell-based
# Hepatitis B virus [5] = assay: Antiviral activity against HBV infected in doxycycline-induced human HepG2-NTCP cells assessed as reduction in HBeAg secretion in supernatant measured from day 2 to 8 post treatment by time resolved fluoroimmunoassay; type: functional, organism-based; details: dose microM 2.5-10, time day 2-8
# Hepatitis B virus [6] = assay: Antiviral activity against HBV infected in doxycycline-induced human HepG2-NTCP cells assessed as reduction in HBsAg secretion in supernatant measured from day 2 to 8 post treatment by time resolved fluoroimmunoassay; type: functional, organism-based; details: dose microM 2.5-10, time day 2-8
# Hepatitis B virus [7] = assay: Antiviral activity against HBV infected human HepAD38 cells assessed as reduction in HBV DNA levels preincubated with compound for 4 days measured after 4 days by RT-PCR analysis; type: functional, organism-based
# Hepatitis B virus [8] = assay: Antiviral activity against HBV infected human HepAD38 cells assessed as reduction in HBeAg secretion preincubated with compound for 4 days measured after 4 days by […] analysis; type: functional, organism-based
# Hepatitis B virus [9] = assay: Antiviral activity against HBV infected human HepAD38 cells assessed as reduction in HBV RNA levels preincubated with compound for 4 days measured after 4 days by RT-PCR analysis; type: functional, organism-based
# Hepatitis B virus [10] = assay: Antiviral activity against HBV infected human HepAD38 cells assessed as reduction in HBV cccDNA levels pretreated with tet for 2 days measured after 8 days post treatment with compound by rolling-cycle amplification; type: functional, organism-based; details: time 10.0 day
# Hepatitis B virus [11] = assay: Antiviral activity against HBV infected human HepAD38 cells assessed as decrease in HBV cccDNA levels pretreated with tet for 2 days measured after 8 days post treatment with compound by southern blot analysis; type: functional, organism-based; details: time 10.0 day
# Hepatitis B virus [12] = assay: Antiviral activity against HBV infected human HepAD38 cells assessed as decrease in DP-rcDNA levels pretreated with tet for 2 days measured after 8 days post treatment with compound by southern blot analysis; type: functional, organism-based; details: time 10.0 day
# Hepatitis B virus [13] = assay: Antiviral activity against HBV infected human HepAD38 cells assessed as HBV cccDNA degradation in presence of tet and LAM at 10 uM obtained up to 8 days post treatment by rolling cycle amplification; type: functional, organism-based; details: time day <=8
# Hepatitis B virus [14] = assay: Antiviral activity against HBV infected human HepAD38 cells assessed as inhibition of total HBV RNA at 10 uM in absence of tet followed by treating with compound after 24 hrs measured after 4 days by RT-qPCR analysis; type: functional, organism-based; details: time 4.0 day
# Hepatitis B virus [15] = assay: Antiviral activity against HBV infected human HepAD38 cells assessed as inhibition of precRNA at 10 uM in absence of tet followed by treating with compound after 24 hrs measured after 4 days by RT-qPCR analysis; type: functional, organism-based; details: time 4.0 day
# Hepatitis B virus [16] = assay: Antiviral activity against HBV infected human HepAD38 cells assessed as inhibition of pgRNA at 10 uM in absence of tet followed by treating with compound after 24 hrs measured after 4 days by RT-qPCR analysis; type: functional, organism-based; details: time 4.0 day
# Hepatitis B virus [17] = assay: Antiviral activity against HBV infected human HepAD38 cells assessed as inhibition of 3.5 kb RNA at 10 uM in absence of tet followed by treating with compound after 24 hrs measured after 4 days by northern blot analysis; type: functional, organism-based; details: time 4.0 day
# Hepatitis B virus [18] = assay: Antiviral activity against HBV infected human HepAD38 cells assessed as decrease in HBV core proteins measured after 4 days by western blot analysis; type: functional, organism-based; details: dose microM 1.25-10, time 4.0 day
# Hepatitis B virus [19] = assay: Antiviral activity against HBV infected human HepAD38 cells assessed as decrease in reverse-transcripted ssDNA treated with tet and LAM followed by addition of compound by southern blot analysis; type: functional, organism-based; details: dose microM 1.25-10, time 4.0 day
# Hepatitis B virus [20] = assay: Antiviral activity against HBV infected human HepAD38 cells assessed as decrease in reverse-transcripted rcDNA treated with tet and LAM followed by addition of compound by southern blot analysis; type: functional, organism-based; details: dose microM 1.25-10, time 4.0 day
# Hepatitis B virus [21] = assay: Antiviral activity against HBV infected human HepAD38 cells assessed as degradation of HBV RNA; type: functional, organism-based
# Hepatitis B virus [22] = assay: Antiviral activity against HBV infected in human HuH7 cells transfected with luciferase reporter plasmid assessed as repression of HBV basal core promoter at 0.25 to 10 uM incubated for 48 hrs by luciferase assay; type: functional, organism-based; details: Huh-7, dose microM 0.25-10, time 48.0 hrs
# Hepatitis B virus [23] = assay: Antiviral activity against HBV infected in human HuH7 cells transfected with luciferase reporter plasmid assessed as repression of HBV enhancer I at 0.25 to 10 uM incubated for 48 hrs by luciferase assay; type: functional, organism-based; details: Huh-7, dose microM 0.25-10, time 48.0 hrs
# Hepatitis B virus [24] = assay: Antiviral activity against HBV infected in human HuH7 cells assessed as reduction in the expression of viral mRNA at 10 uM incubated for 4 days by FPKM analysis; type: functional, organism-based; details: Huh-7, time 4.0 day
# [25] = Downregulation of ZBED6 in HBV infected human HepAD38 cells assessed as inhibition rate at 10 uM in absence of tet incubated with compound for 4 days followed by RNA extraction with trizol reagent measured by qRT-PCR analysis relative to control; type: functional; details: Hepatitis B virus, HePAD38, 96 h, time 4 day
# [26] = Downregulation of ZBTB7B in HBV infected human HepAD38 cells assessed as inhibitory rate at 10 uM in absence of tet incubated with compound for 4 days followed by RNA extraction with trizol reagent and measured by qRT-PCR analysis relative to control; type: functional; details: Hepatitis B virus, HePAD38, 96 h, time 4 day
structure (smiles),measurement,setting,value
C=C1/C=C/[C@H](OC(C)=O)[C@@]2(C)[C@@H](OC(C)=O)CC[C@]3(CO3)[C@@H]2[C@H](OC(C)=O)[C@]2(O)[C@@H](C)C(=O)O[C@H]2[C@H]1Cl [JUNCEELLOLIDE C],inhibition at 10 µM,Hepatitis B virus [1],63%
same,EC50,Hepatitis B virus [2],5.19 µM
same,CC50 at 72 h,[3],> 100 µM
same,CC50 at 72 h,[4],> 100 µM
C=C1/C=C/[C@H](OC(=O)CC)[C@@]2(C)[C@@H](OC(C)=O)CC[C@]3(CO3)[C@@H]2[C@H](OC(C)=O)[C@]2(O)[C@@H](C)C(=O)O[C@H]2[C@H]1Cl,inhibition at 10 µM,Hepatitis B virus [1],75%
same,EC50,Hepatitis B virus [2],0.81 µM
same,CC50 at 72 h,[3],> 100 µM
same,CC50 at 72 h,[4],> 100 µM
C=C1CC[C@H](OC(C)=O)[C@]2(C)[C@@H](OC(C)=O)/C=C/C(=C)[C@H](Cl)[C@@H]3OC(=O)[C@H](C)[C@@]3(O)[C@@H](OC(C)=O)[C@@H]12,inhibition at 10 µM,Hepatitis B virus [1],64%
same,EC50,Hepatitis B virus [2],0.83 µM
same,Activity,Hepatitis B virus [5],Dose-dependent effect
same,Activity,Hepatitis B virus [6],Dose-dependent effect
same,EC50,Hepatitis B virus [7],0.83 µM
same,EC50,Hepatitis B virus [8],7.75 µM
same,EC50,Hepatitis B virus [9],2.87 µM
same,CC50 at 72 h,[3],> 100 µM
same,Activity,Hepatitis B virus [10],Active
same,Activity,Hepatitis B virus [11],Active
same,Activity,Hepatitis B virus [12],Active
same,Activity,Hepatitis B virus [13],inactive
same,inhibition,Hepatitis B virus [14],Active
same,inhibition,Hepatitis B virus [15],Active
same,inhibition,Hepatitis B virus [16],Active
same,inhibition,Hepatitis B virus [17],Active
same,Activity,Hepatitis B virus [18],Dose-dependent effect
same,Activity,Hepatitis B virus [19],Dose-dependent effect
same,Activity,Hepatitis B virus [20],Dose-dependent effect
same,Activity,Hepatitis B virus [21],inactive
same,Activity,Hepatitis B virus [22],Active
same,Activity,Hepatitis B virus [23],Active
same,Activity,Hepatitis B virus [24],Active
same,inhibition at 10 µM,[25],28%
same,inhibition at 10 µM,[26],32%
same,CC50 at 72 h,[4],> 100 µM
C=C1CC[C@H](OC(C)=O)[C@]2(C)[C@@H](OC(C)=O)C[C@@H](OC(C)=O)/C(COC(C)=O)=C\[C@@H]3OC(=O)[C@H](C)[C@@]3(O)[C@@H](OC(C)=O)[C@@H]12,inhibition at 10 µM,Hepatitis B virus [1],0%
same,CC50 at 72 h,[3],> 100 µM
same,CC50 at 72 h,[4],> 100 µM
CC(=O)OCC(=O)O[C@H]1/C=C\C(CCl)=C/[C@@H]2OC(=O)[C@H](C)[C@@]2(O)[C@@H](OC(C)=O)[C@H]2[C@@](O)(CCl)CC[C@H](OC(C)=O)[C@]12C,inhibition at 10 µM,Hepatitis B virus [1],58%
same,CC50 at 72 h,[3],> 100 µM
same,CC50 at 72 h,[4],> 100 µM
C=C1[C@H](Cl)[C@@H]2OC(=O)[C@H](C)[C@]23O[C@@H]1[C@@H](OC(C)=O)[C@H](OC(C)=O)[C@@]1(C)[C@@H](OC(C)=O)CC[C@]2(CO2)[C@@H]1[C@@H]3OC(C)=O,inhibition at 10 µM,Hepatitis B virus [1],17%
same,CC50 at 72 h,[3],> 100 µM
same,CC50 at 72 h,[4],> 100 µM
C=C1/C=C/[C@H](OC(C)=O)[C@@]2(C)[C@@H](OC(C)=O)C[C@H](OC(C)=O)[C@]3(CO3)[C@@H]2[C@H](OC(C)=O)[C@]2(O)[C@@H](C)C(=O)O[C@H]2[C@H]1Cl,inhibition at 10 µM,Hepatitis B virus [1],1%
same,CC50 at 72 h,[3],> 100 µM
same,CC50 at 72 h,[4],> 100 µM
C=C1[C@H](Cl)[C@@H]2OC(=O)[C@H](C)[C@]23O[C@@H]1[C@@H](O)[C@H](OC(C)=O)[C@@]1(C)[C@@H](OC(C)=O)[C@@H](OC(C)=O)C[C@]2(CO2)[C@@H]1[C@@H]3OC(C)=O,inhibition at 10 µM,Hepatitis B virus [1],31%
same,CC50 at 72 h,[3],> 100 µM
same,CC50 at 72 h,[4],> 100 µM
C=C1CC[C@H](OC(=O)CC(C)C)[C@]2(C)[C@@H](OC(C)=O)C[C@@H](OC(C)=O)/C(C)=C\[C@@H]3OC(=O)[C@H](C)[C@@]3(O)[C@@H](OC(C)=O)[C@@H]12,inhibition at 10 µM,Hepatitis B virus [1],0%
same,CC50 at 72 h,[3],> 100 µM
same,CC50 at 72 h,[4],> 100 µM
CC(=O)OCC1=C/[C@@H]2OC(=O)[C@H](C)[C@@]2(O)[C@@H](OC(C)=O)[C@H]2[C@]3(CC[C@H](OC(C)=O)[C@]2(C)[C@@H](OC(C)=O)/C=C\1)CO3,inhibition at 10 µM,Hepatitis B virus [1],0%
same,CC50 at 72 h,[3],> 100 µM
same,CC50 at 72 h,[4],> 100 µM
CC(=O)OCC(=O)O[C@H]1/C=C\C(COC(C)=O)=C/[C@@H]2OC(=O)[C@H](C)[C@@]2(O)[C@@H](OC(C)=O)[C@H]2[C@]3(CC[C@H](OC(C)=O)[C@]12C)CO3,inhibition at 10 µM,Hepatitis B virus [1],0%
same,CC50 at 72 h,[3],> 100 µM
same,CC50 at 72 h,[4],> 100 µM

# Reference: ChEMBL document CHEMBL4725284, “Junceellolide B, a novel inhibitor of Hepatitis B virus” (Bioorg Med Chem, 2020)
